# How the values were obtained:
# [1] = test system: urinary incontinence (UI) episodes; test: clinical trial of oral sildenafil in women: UI episodes and side effects; format: in vivo
# From the text: In view of this, the inventors determined to develop a way to administer sildenafil directly to the muscles and structures of the pelvic floor using an intravaginal apparatus. Disclosed in the discussion that follows are example embodiments of intravaginal apparatuses that can be used for treating urinary incontinence.
# [2] = clinical trial pharmacokinetics: plasma and cervicovaginal (CVF) secretion drug concentrations after oral sildenafil; format: in vivo; settings: women, oral 20 mg 3 times a day for a month
# Protocol: A series of pharmacokinetic and safety studies were conducted in both women and sheep.
structure (smiles),measurement,setting,value
CCCc1nn(C)c2c(=O)[nH]c(-c3cc(S(=O)(=O)N4CCN(C)CC4)ccc3OCC)nc12 [sildenafil],side effects,[1]; women taking oral sildenafil,"flushing, visual changes, and gastrointestinal changes"
same,number of UI episodes per day,[1]; women taking oral sildenafil (20 mg 3 times a day for a month),decrease
same,dependence of CVF secretion drug concentrations on plasma drug concentrations,[2],not dependent on the plasma drug concentrations
same,CVF secretion drug concentrations compared with plasma drug concentrations,[2]; later timepoints after the last oral dose,higher than the plasma drug concentrations
